Measurements reported in patent US20170190671A1, “BIS(ARYL)CATECHOL DERIVATIVES AS HERBICIDES” (E I DU PONT DE NEMOURS AND COMPANY, priority 2014, published 2017).

Columns and labels:
Test in all cases: Test D postemergence
Assay type in all cases: in vivo
Settings in all cases: scale 0 to 100
[1] = tested on: winter barley (Hordeum vulgare)
Source text: (§1) Seeds of plant species selected from bluegrass (annual bluegrass, Poa annua), blackgrass (Alopecurus myosuroides), canarygrass (Phalaris minor), chickweed (common chickweed, Stellaria media), cutleaf geranium (Geranium dissectum), galium (catchweed bedstraw, Galium aparine), downy bromegrass (Bromus tectorum), field poppy (Papaver rhoeas), field violet (Viola arvensis), green foxtail (Setaria viridis), deadnettle (henbit deadnettle, Lamium amplexicaule), Italian ryegrass (Lolium multiflorum), kochia (Kochia scoparia), lambsquarters (Chenopodium album), oilseed rape (Brassica napus), pigweed (Amaranthus retroflexus), chamomile (scentless chamomile, Matricaria inodora), Russian thistle (Salsola kali), speedwell (bird's-eye speedwell, Veronica persica), spring barley (Hordeum vulgare), spring wheat (Triticum aestivum), wild buckwheat (Polygonum convolvulus), wild mustard (Sinapis arvensis), wild oat (Avenafatua), wild radish (Raphanus raphanistrum), windgrass (Apera spica-venti), winter barley (Hordeum vulgare), and winter wheat (Triticum aestivum) were planted into a silt loam soil and treated preemergence with test chemicals formulated in a non-phytotoxic solvent mixture which included a surfactant.
(§2) At the same time, these species were planted in pots containing Redi-Earth® planting medium (Scotts Company, 14111 Scottslawn Road, Marysville, Ohio 43041) comprising spaghnum peat moss, vermiculite, wetting agent and starter nutrients and treated with postemergence applications of the test chemicals formulated in the same manner. Plants ranged in height from 2 to 18 cm (1- to 4-leaf stage). Treated plants and controls were maintained in a controlled growth environment for 14 to 21 days after which time all species were compared to controls and visually evaluated. Plant response ratings, summarized in Table D, are based on a scale of 0 to 100 where 0 is no effect and 100 is complete control. A dash (-) response means no test result.

[2] = tested on: winter wheat (Triticum aestivum)
Source text: as §1, §2

[3] = tested on: windgrass (Apera spica-venti)
Source text: as §1, §2

[4] = tested on: wild radish (Raphanus raphanistrum)
Source text: as §1, §2

[5] = tested on: deadnettle (henbit deadnettle, Lamium amplexicaule)
Source text: as §1, §2

[6] = tested on: wild mustard (Sinapis arvensis)
Source text: as §1, §2

[7] = tested on: galium (catchweed bedstraw, Galium aparine)
Source text: as §1, §2

[8] = tested on: wild buckwheat (Polygonum convolvulus)
Source text: as §1, §2

[9] = tested on: lambsquarters (Chenopodium album)
Source text: as §1, §2

Structure (SMILES)	Plant response rating, Barley, Winter ([1]; 16 g ai/ha)	Plant response rating, Barley, Winter ([1]; 31 g ai/ha)	Plant response rating, Barley, Winter ([1]; 62 g ai/ha)	Plant response rating, Barley, Winter ([1]; 125 g ai/ha)	Plant response rating, Wheat, Winter ([2]; 16 g ai/ha)	Plant response rating, Wheat, Winter ([2]; 31 g ai/ha)	Plant response rating, Wheat, Winter ([2]; 62 g ai/ha)	Plant response rating, Wheat, Winter ([2]; 125 g ai/ha)	Plant response rating, Windgrass ([3]; 16 g ai/ha)	Plant response rating, Windgrass ([3]; 31 g ai/ha)	Plant response rating, Windgrass ([3]; 62 g ai/ha)	Plant response rating, Windgrass ([3]; 125 g ai/ha)	Plant response rating, Radish, Wild ([4]; 16 g ai/ha)	Plant response rating, Radish, Wild ([4]; 31 g ai/ha)	Plant response rating, Radish, Wild ([4]; 62 g ai/ha)	Plant response rating, Radish, Wild ([4]; 125 g ai/ha)	Plant response rating, Deadnettle ([5]; 16 g ai/ha)	Plant response rating, Deadnettle ([5]; 31 g ai/ha)	Plant response rating, Deadnettle ([5]; 62 g ai/ha)	Plant response rating, Deadnettle ([5]; 125 g ai/ha)	other results
Fc1cnc(Oc2c(F)cccc2Oc2ncc(Cl)cn2)nc1 [Compound 23]	0	5	5	5	0	0	0	0	10	10	15	20	25	80	80	85	10	20	55	70	Plant response rating, Mustard, Wild ([6]; 16 g ai/ha): 25; Plant response rating, Mustard, Wild ([6]; 31 g ai/ha): 35; Plant response rating, Mustard, Wild ([6]; 62 g ai/ha): 65; Plant response rating, Mustard, Wild ([6]; 125 g ai/ha): 95; Plant response rating, Galium ([7]; 16 g ai/ha): 65; Plant response rating, Galium ([7]; 31 g ai/ha): 70; Plant response rating, Galium ([7]; 62 g ai/ha): 85; Plant response rating, Galium ([7]; 125 g ai/ha): 85; Plant response rating, Buckwheat, Wild ([8]; 16 g ai/ha): 50; Plant response rating, Buckwheat, Wild ([8]; 31 g ai/ha): 70; Plant response rating, Buckwheat, Wild ([8]; 62 g ai/ha): 75; Plant response rating, Buckwheat, Wild ([8]; 125 g ai/ha): 75; Plant response rating, Lambsquarters ([9]; 16 g ai/ha): 10; Plant response rating, Lambsquarters ([9]; 31 g ai/ha): 30; Plant response rating, Lambsquarters ([9]; 62 g ai/ha): 60; Plant response rating, Lambsquarters ([9]; 125 g ai/ha): 60
FC(F)(F)c1cnc(Oc2c(Br)cccc2Oc2ncc(Cl)cn2)nc1 [Compound 24]	10	15	20	25	10	10	15	15	10	15	25	35	75	75	95	100	55	70	75	85	Plant response rating, Mustard, Wild ([6]; 16 g ai/ha): 50; Plant response rating, Mustard, Wild ([6]; 31 g ai/ha): 80; Plant response rating, Mustard, Wild ([6]; 62 g ai/ha): 70; Plant response rating, Mustard, Wild ([6]; 125 g ai/ha): 85; Plant response rating, Galium ([7]; 16 g ai/ha): 40; Plant response rating, Galium ([7]; 31 g ai/ha): 70; Plant response rating, Galium ([7]; 62 g ai/ha): 85; Plant response rating, Galium ([7]; 125 g ai/ha): 90; Plant response rating, Buckwheat, Wild ([8]; 16 g ai/ha): 60; Plant response rating, Buckwheat, Wild ([8]; 31 g ai/ha): 60; Plant response rating, Buckwheat, Wild ([8]; 62 g ai/ha): 75; Plant response rating, Buckwheat, Wild ([8]; 125 g ai/ha): 95; Plant response rating, Lambsquarters ([9]; 16 g ai/ha): 35; Plant response rating, Lambsquarters ([9]; 31 g ai/ha): 45; Plant response rating, Lambsquarters ([9]; 62 g ai/ha): 60; Plant response rating, Lambsquarters ([9]; 125 g ai/ha): 75
